Numbers after ± are expanded uncertainties.
Assay: xn = mol fraction of the nth substance listed
Conditions: Maximal bubble pressure

For `O` [water] + CCCCn1cc[n+](C)c1.[Cl-], the surface tension liquid-gas (298.1 K, x2 = 0) was 71.9 ± 0.7 mN/m, the surface tension liquid-gas (298.9 K, x2 = 0) was 71.7 ± 0.6 mN/m and the surface tension liquid-gas (299.7 K, x2 = 0) was 71.6 ± 0.4 mN/m.

With `O` [water] + CCCCn1cc[n+](C)c1.F[B-](F)(F)F the surface tension liquid-gas (298.1 K, x2 = 0) was 72 ± 3.6 mN/m, the surface tension liquid-gas (298.5 K, x2 = 0) was 71.9 ± 7.7 mN/m and the surface tension liquid-gas (298.9 K, x2 = 0) was 71.8 ± 8.2 mN/m.

`CCCCn1cc[n+](C)c1.F[B-](F)(F)F` [1-butyl-3-methylimidazolium tetrafluoroborate] + O gave a surface tension liquid-gas (298 K, x1 = 0.053) of 47.7 ± 0.5 mN/m, a surface tension liquid-gas (298 K, x1 = 0.114) of 48.1 ± 0.3 mN/m and a surface tension liquid-gas (298.1 K, x1 = 0.014) of 52.4 ± 6 mN/m. For the same molecule, the surface tension liquid-gas (298.1 K, x1 = 0.046) was 47.8 ± 3.6 mN/m, the surface tension liquid-gas (298.2 K, x1 = 0.007) was 60.4 ± 4.6 mN/m and the surface tension liquid-gas (298.2 K, x1 = 0.021) was 49.2 ± 9.6 mN/m. It also gave a surface tension liquid-gas (298.3 K, x1 = 0.029) of 47.8 ± 0.6 mN/m, a surface tension liquid-gas (298.3 K, x1 = 0.033) of 47.9 ± 0.6 mN/m and a surface tension liquid-gas (298.3 K, x1 = 0.068) of 48.1 ± 1.1 mN/m. For the same molecule, the surface tension liquid-gas (298.3 K, x1 = 0.186) was 48.1 ± 0.4 mN/m, the surface tension liquid-gas (298.4 K, x1 = 0.004) was 60.8 ± 3.2 mN/m and the surface tension liquid-gas (298.4 K, x1 = 0.019) was 48.9 ± 8.2 mN/m. For the same molecule, the surface tension liquid-gas (298.4 K, x1 = 0.028) was 48 ± 1.1 mN/m, the surface tension liquid-gas (298.4 K, x1 = 0.114) was 48.1 ± 0.9 mN/m and the surface tension liquid-gas (298.4 K, x1 = 0.17) was 48.1 ± 0.9 mN/m. The surface tension liquid-gas (298.4 K, x1 = 0.228) was 47.9 ± 1 mN/m, the surface tension liquid-gas (298.5 K, x1 = 0.006) was 56.1 ± 7.4 mN/m and the surface tension liquid-gas (298.5 K, x1 = 0.009) was 53.2 ± 6.8 mN/m. For the same molecule, the surface tension liquid-gas (298.5 K, x1 = 0.013) was 50.7 ± 4 mN/m, the surface tension liquid-gas (298.5 K, x1 = 0.109) was 48.4 ± 2.7 mN/m and the surface tension liquid-gas (298.5 K, x1 = 0.163) was 48.2 ± 0.5 mN/m. It also gave a surface tension liquid-gas (298.6 K, x1 = 0.026) of 48.5 ± 1.5 mN/m, a surface tension liquid-gas (298.6 K, x1 = 0.061) of 48.4 ± 0.4 mN/m and a surface tension liquid-gas (298.6 K, x1 = 0.233) of 47.9 ± 0.4 mN/m. The surface tension liquid-gas (298.6 K, x1 = 0.292) was 47.6 ± 0.9 mN/m, the surface tension liquid-gas (298.6 K, x1 = 0.355) was 47.5 ± 0.7 mN/m and the surface tension liquid-gas (298.7 K, x1 = 0.014) was 50.7 ± 1.3 mN/m. For the same molecule, the surface tension liquid-gas (298.7 K, x1 = 0.05) was 48.3 ± 1.7 mN/m, the surface tension liquid-gas (298.7 K, x1 = 0.42) was 47.4 ± 0.7 mN/m and the surface tension liquid-gas (298.8 K, x1 = 0.01) was 53.2 ± 4.9 mN/m. It also gave a surface tension liquid-gas (298.8 K, x1 = 0.319) of 47.7 ± 0.4 mN/m, a surface tension liquid-gas (298.9 K, x1 = 0.392) of 47.5 ± 0.4 mN/m and a surface tension liquid-gas (298.9 K, x1 = 0.435) of 47.2 ± 0.7 mN/m. It also gave a surface tension liquid-gas (299 K, x1 = 0.004) of 60.3 ± 22 mN/m and a surface tension liquid-gas (299.2 K, x1 = 0.51) of 47.3 ± 0.8 mN/m.

For `CCCCn1cc[n+](C)c1.[Cl-]` [1-butyl-3-methylimidazolium chloride] + O, the surface tension liquid-gas (298.1 K, x1 = 0.011) was 66.2 ± 1.1 mN/m, the surface tension liquid-gas (298.1 K, x1 = 0.015) was 65.5 ± 1.9 mN/m and the surface tension liquid-gas (298.1 K, x1 = 0.018) was 64.7 ± 3.4 mN/m. The surface tension liquid-gas (298.2 K, x1 = 0.004) was 69.9 ± 1 mN/m, the surface tension liquid-gas (298.2 K, x1 = 0.025) was 64.5 ± 4 mN/m and the surface tension liquid-gas (298.2 K, x1 = 0.031) was 63.7 ± 0.7 mN/m. For the same molecule, the surface tension liquid-gas (298.3 K, x1 = 0.007) was 68.8 ± 1.5 mN/m, the surface tension liquid-gas (298.3 K, x1 = 0.053) was 61.7 ± 0.7 mN/m and the surface tension liquid-gas (298.3 K, x1 = 0.073) was 59.9 ± 1 mN/m. It also gave a surface tension liquid-gas (298.7 K, x1 = 0.142) of 56.7 ± 0.5 mN/m, a surface tension liquid-gas (298.9 K, x1 = 0.112) of 57.6 ± 1.2 mN/m and a surface tension liquid-gas (298.9 K, x1 = 0.226) of 55 ± 0.5 mN/m. It also gave a surface tension liquid-gas (299 K, x1 = 0.188) of 55.4 ± 0.5 mN/m, a surface tension liquid-gas (299.1 K, x1 = 0.004) of 68.9 ± 2.3 mN/m and a surface tension liquid-gas (299.2 K, x1 = 0.009) of 66.5 ± 0.6 mN/m. For the same molecule, the surface tension liquid-gas (299.2 K, x1 = 0.016) was 65 ± 0.7 mN/m, the surface tension liquid-gas (299.2 K, x1 = 0.023) was 63.8 ± 0.9 mN/m and the surface tension liquid-gas (299.2 K, x1 = 0.303) was 55 ± 0.5 mN/m. It also gave a surface tension liquid-gas (299.3 K, x1 = 0.03) of 62.8 ± 1.5 mN/m, a surface tension liquid-gas (299.5 K, x1 = 0.033) of 63.3 ± 1.2 mN/m and a surface tension liquid-gas (299.5 K, x1 = 0.037) of 63 ± 1 mN/m. The surface tension liquid-gas (299.5 K, x1 = 0.374) was 54.9 ± 0.5 mN/m, the surface tension liquid-gas (299.6 K, x1 = 0.028) was 64.1 ± 1.4 mN/m and the surface tension liquid-gas (299.7 K, x1 = 0.002) was 70.5 ± 0.4 mN/m. It also gave a surface tension liquid-gas (299.7 K, x1 = 0.011) of 67.1 ± 0.9 mN/m, a surface tension liquid-gas (299.7 K, x1 = 0.017) of 65.6 ± 0.6 mN/m and a surface tension liquid-gas (299.9 K, x1 = 0.067) of 59.3 ± 0.5 mN/m. The surface tension liquid-gas (300 K, x1 = 0.048) was 61 ± 4.1 mN/m, the surface tension liquid-gas (300.1 K, x1 = 0.422) was 54.3 ± 0.6 mN/m and the surface tension liquid-gas (300.3 K, x1 = 0.077) was 59.6 ± 1.2 mN/m. For the same molecule, the surface tension liquid-gas (300.3 K, x1 = 0.11) was 57 ± 0.5 mN/m, the surface tension liquid-gas (300.4 K, x1 = 0.089) was 57.9 ± 0.6 mN/m and the surface tension liquid-gas (300.4 K, x1 = 0.292) was 53.7 ± 0.9 mN/m. It also gave a surface tension liquid-gas (300.5 K, x1 = 0.139) of 55.8 ± 0.7 mN/m, a surface tension liquid-gas (300.5 K, x1 = 0.198) of 54.9 ± 0.4 mN/m and a surface tension liquid-gas (300.6 K, x1 = 0.134) of 55.9 ± 0.4 mN/m. For the same molecule, the surface tension liquid-gas (300.6 K, x1 = 0.48) was 54.1 ± 0.5 mN/m, the surface tension liquid-gas (300.7 K, x1 = 0.163) was 55.4 ± 0.4 mN/m and the surface tension liquid-gas (300.9 K, x1 = 0.36) was 53.8 ± 1.3 mN/m. For the same molecule, the surface tension liquid-gas (301.1 K, x1 = 0.225) was 54.4 ± 0.5 mN/m, the surface tension liquid-gas (301.2 K, x1 = 0.268) was 54.8 ± 0.5 mN/m and the surface tension liquid-gas (301.6 K, x1 = 0.329) was 54.6 ± 0.6 mN/m. For the same molecule, the surface tension liquid-gas (302.1 K, x1 = 0.398) was 54.4 ± 0.5 mN/m.

Source: the NIST ThermoML archive (doi:10.1021/je100949x)
